For this test, the target named is T1, human IGF-IR (Homo sapiens, UniProt P08069).
T1 construct: complete human IGF-IR cDNA: GenBank Acc; No. NM_000875; expressed in transfected cells; host or cells: NIH-3T3 mouse fibroblasts (NWT-21 cell line), prepared as in Kato et al., J. Biol. Chem. 268, 2655-61, 1993
Put plainly: cellular "Capture ELISA" test for activity against IGF-I induced IGF-IR autophosphorylation. It is filed as cell-based. The settings on record: IGF-I (10 ng/ml) induced IGF-IR autophosphorylation in NIH-3T3 mouse fibroblasts transfected with human IGF-IR (NWT-21 cell line); 90 min compound incubation. The procedure:
In this assay the activity of the compounds of the invention against Insulin-like growth factor I (IGF-I) induced autophosphorylation of the IGF-IR is determined. The assay is conducted as follows:
The cells which overexpress human IGF-IR are cultured in Dulbecco's minimal essential (DMEM) medium, containing 10% Fetal Calf Serum (FCS). […] On day 3 the medium is discarded and the cells are incubated for 24 h in minimal medium (DMEM, containing 0.5% FCS).
The plates are washed twice with 0.05% (v/v) Tween-20 in Phosphate-Buffered Saline (PBS) and once with nanopure H2O. […] After blocking, the plates are washed once with nanopure H2O.
After incubating the extracts and the secondary antibody for 2 h at 4° C., the extracts are discarded, the plates are washed twice with 0.05% (v/v) Tween-20 in PBS and once with nanopure water.
90 μl/well AP substrate (CDP-Star; obtained from Tropix; Cat. No.: MS100RY) are then added and the plates are incubated for 45 min at RT in the dark, followed by measuring AP activity in a Packard Top Count Microplate Scintillation Counter. The IC50 values for the compounds of formula I are calculated via linear regression analysis using the GraphPad In-stat program (GraphPad Software, USA).
Test for activity against IGF-I induced IGF-IR autophosphorylation using the cellular “Capture ELISA” test
The cellular “Capture ELISA” test is carried out as described above.
On the technique in general: An ELISA detects its analyte on a solid surface through an enzyme-linked reagent.

T1 sequence (P08069 31-1367): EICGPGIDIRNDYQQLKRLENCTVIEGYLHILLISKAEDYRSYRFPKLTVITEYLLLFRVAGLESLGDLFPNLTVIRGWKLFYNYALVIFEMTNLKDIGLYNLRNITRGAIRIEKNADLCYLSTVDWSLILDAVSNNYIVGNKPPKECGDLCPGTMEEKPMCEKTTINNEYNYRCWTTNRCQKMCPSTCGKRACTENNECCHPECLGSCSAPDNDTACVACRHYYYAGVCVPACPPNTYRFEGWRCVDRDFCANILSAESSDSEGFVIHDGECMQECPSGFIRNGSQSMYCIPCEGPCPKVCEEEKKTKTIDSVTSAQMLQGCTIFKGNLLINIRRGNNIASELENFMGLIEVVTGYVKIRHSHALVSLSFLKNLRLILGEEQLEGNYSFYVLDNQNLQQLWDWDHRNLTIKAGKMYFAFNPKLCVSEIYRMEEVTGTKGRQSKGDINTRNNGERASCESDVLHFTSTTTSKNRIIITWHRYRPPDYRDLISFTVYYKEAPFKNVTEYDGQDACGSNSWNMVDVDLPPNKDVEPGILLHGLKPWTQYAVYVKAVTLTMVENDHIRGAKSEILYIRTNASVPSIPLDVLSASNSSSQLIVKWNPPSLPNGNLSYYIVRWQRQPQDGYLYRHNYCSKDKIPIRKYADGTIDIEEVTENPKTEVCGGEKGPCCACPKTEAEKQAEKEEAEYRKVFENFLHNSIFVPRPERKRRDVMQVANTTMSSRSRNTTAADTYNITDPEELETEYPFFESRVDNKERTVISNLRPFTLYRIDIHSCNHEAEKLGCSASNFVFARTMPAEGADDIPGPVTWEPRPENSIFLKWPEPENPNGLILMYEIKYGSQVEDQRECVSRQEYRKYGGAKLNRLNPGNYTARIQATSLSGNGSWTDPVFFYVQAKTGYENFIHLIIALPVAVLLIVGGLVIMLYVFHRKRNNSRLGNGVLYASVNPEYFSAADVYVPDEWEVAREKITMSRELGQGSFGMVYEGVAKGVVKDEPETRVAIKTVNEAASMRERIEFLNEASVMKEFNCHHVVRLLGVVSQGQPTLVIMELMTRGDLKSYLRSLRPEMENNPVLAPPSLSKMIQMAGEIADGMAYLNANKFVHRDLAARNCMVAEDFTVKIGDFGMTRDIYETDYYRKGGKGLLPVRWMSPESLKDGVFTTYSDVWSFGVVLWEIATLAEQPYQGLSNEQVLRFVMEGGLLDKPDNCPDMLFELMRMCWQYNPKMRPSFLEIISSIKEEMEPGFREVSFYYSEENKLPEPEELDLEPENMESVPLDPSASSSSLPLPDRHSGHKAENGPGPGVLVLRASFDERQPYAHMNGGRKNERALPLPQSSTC

As usually defined, the IC50 is the midpoint of a concentration-inhibition curve. A low value points to greater potency in that assay. `CCN(CC)[C@H]1CC[C@H](n2c(C)c(-c3cccc(OCc4ccccc4)c3)c3c(N)ncnc32)CC1` [Example 47, trans-5-(3-Benzyloxy-phenyl)-7-(4-diethylamino-cyclohexyl)-6-methyl-7H-Pyrrolo[2,3-d]pyrimidin-4-ylamine] registered an IC50 of 400 nM. This counts as sub-micromolar.

With `Nc1ncnc2c1c(-c1cccc(OCc3ccccc3)c1)cn2[C@H]1CC[C@@H](N2CCC2)CC1` [Example 10, cis-7-(4-Azetidin-1-yl-cyclohexyl)-5-(3-benzyloxy-phenyl)-7H-pyrrolo[2,3-d]pyrimidin-4-ylamine], the IC50 came to 120 nM.

Take `Nc1ncnc2c1c(-c1cccc(OCc3ccccc3)c1)cn2[C@H]1CC[C@H](N2CCC2)CC1` [Example 11, trans-7-(4-Azetidin-1-yl-cyclohexyl)-5-(3-benzyloxy-phenyl)-7H-pyrrolo[2,3-d]pyrimidin-4-ylamine]: half-maximal inhibition (IC50) required 350 nM. This IC50 is about 2.9-fold higher than that of the compound before.

The record behind these values is patent US20060058324A1, “4-Amino-5-phenyl-7-cyclohexyl-pyrrolo 2,3-d pyrimidine derivatives” (priority 2002, published 2006).
